Assay results reported in ChEMBL document CHEMBL4622836, “Identification of an ethyl 5,6-dihydropyrazolo[1,5-c]quinazoline-1-carboxylate as a catalytic inhibitor of DNA gyrase” (Bioorg Med Chem, 2020).
Activity calls are given as the source filed them. The rule behind the calls is not given here.

Legend:
DNA gyrase = DNA gyrase (Escherichia coli, UniProt P0AES4+P0AES6); experiment: Inhibition of Escherichia coli DNA gyrase assessed as supercoiling activity by fluorescence assay relative to control; type: protein-complex assay
[1] = molecular target: T1, DNA gyrase (Escherichia coli) (UniProt P0AES6+P0AES4); experiment: Inhibition of Escherichia coli DNA gyrase super-coiling activity at 50 uM; type: protein-complex assay
[2] = molecular target: T1, DNA gyrase (Escherichia coli); experiment: Inhibition of Escherichia coli DNA gyrase super-coiling activity at 25uM; type: protein-complex assay
[3] = molecular target: T1, DNA gyrase (Escherichia coli); experiment: Poison activity at Escherichia coli DNA gyrase assessed as stabilization of DNA cleavage complex by measuring linear plasmid DNA formation relative to control; type: protein-complex assay
Bos taurus = organism: Bos taurus; experiment: Binding affinity to calf thymus DNA by fluorescence-based DNA binding assay
DNA = experiment: Displacement of thiazole orange from DNA (unknown origin) by fluorescence assay; type: nucleic-acid assay

| SMILES | IC50 (DNA gyrase) [µM] | inhibition [1] | inhibition [2] | Activity [3] | Activity (Bos taurus) | Activity (DNA) |
| --- | --- | --- | --- | --- | --- | --- |
| Cc1c(N2CC[C@@H](CN)C2)c(F)cc2c(=O)n(CCN)c(=O)n(C3CC3)c12 | 17.6 | Active | Active | Active |  |  |
| CCOC(=O)c1cnn2c(=O)n(CC)c3cc(N4CC[C@@H](CN)C4)c(F)cc3c12 | 3.5 | Active | Active | inactive | inactive | inactive |
| COc1c(N2CC[C@@H](CN)C2)c(F)cc2c(=O)n(CCN)c(=O)n(C3CC3)c12 | > 50 |  |  |  |  |  |
| CCn1c(=O)n2nc(C(=O)O)cc2c2cc(F)c(N3CC[C@@H](CN)C3)cc21 | > 50 |  |  |  |  |  |
| CCOC(=O)c1cc2c3cc(F)c(N4CC[C@@H](CN)C4)cc3n(CC)c(=O)n2n1 | > 50 |  |  |  |  |  |
| COc1c(N2CC[C@@H](CN)C2)c(F)cc2c(=O)n(CCNC(=N)N)c(=O)n(C3CC3)c12 | > 50 |  |  |  |  |  |
| Cc1c(N2CC[C@@H](CN)C2)c(F)cc2c(=O)n(CCNC(=N)N)c(=O)n(C3CC3)c12 | 11.5 | Active | Active | Active |  |  |
| NCCn1c(=O)c2cc(F)c(N3CC[C@@H](CN)C3)cc2n(C2CC2)c1=O | > 50 |  |  |  |  |  |
| Cc1c(N2CC[C@@H](CN)C2)c(F)cc2c(=O)n(N)c(=O)n(C3CC3)c12 | 0.95 |  |  | Active |  |  |
| N=C(N)NCCn1c(=O)c2cc(F)c(N3CC[C@@H](CN)C3)cc2n(C2CC2)c1=O | > 50 |  |  |  |  |  |
| COc1c(N2CC[C@@H](CN)C2)c(F)cc2c(=O)c(C(=O)O)cn(C3CC3)c12 | 0.12 |  |  | Active |  |  |
